# Laboratory results taken from PubChem BioAssay (NCI).
#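 Compound exposure: 48 hours, 5 concentrations, 96-well plates. Abbreviation: GI50, concentration required for 50% inhibition of growth. TGI marks complete inhibition of growth.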
# Experiments:
# Test in all cases: inhibition of tumour cell growth, NCI panel, 48 h
# RPMI-8226 leukemia = test system: RPMI-8226 leukemia
# OVCAR-4 ovarian = test system: OVCAR-4 ovarian
# A549 NSCLC = test system: A549 NSCLC
# MOLT-4 leukemia = test system: MOLT-4 leukemia
# KM12 colon = test system: KM12 colon
# CCRF-CEM leukemia = test system: CCRF-CEM leukemia
# RXF 393 renal = test system: RXF 393 renal
# NCI-H23 lung = test system: NCI-H23 lung
# 786-0 renal = test system: 786-0 renal
# MDA-MB-231 breast = test system: MDA-MB-231 breast
SMILES,TGI (RPMI-8226 leukemia) [µM],TGI (OVCAR-4 ovarian) [µM],TGI (A549 NSCLC) [µM],TGI (MOLT-4 leukemia) [µM],TGI (KM12 colon) [µM],TGI (CCRF-CEM leukemia) [µM],TGI (RXF 393 renal) [µM],TGI (NCI-H23 lung) [µM],TGI (786-0 renal) [µM],GI50 (RPMI-8226 leukemia) [µM],GI50 (OVCAR-4 ovarian) [µM],GI50 (A549 NSCLC) [µM],GI50 (MOLT-4 leukemia) [µM],GI50 (MDA-MB-231 breast) [µM],TGI (MDA-MB-231 breast) [µM],GI50 (KM12 colon) [µM],GI50 (RXF 393 renal) [µM],GI50 (NCI-H23 lung) [µM],GI50 (786-0 renal) [µM],GI50 (CCRF-CEM leukemia) [µM]
C/C=N\N1C(=O)c2ccccc2C1=O,> 100,> 100,> 100,> 100,> 100,> 100,> 100,> 100,> 100,–,–,–,–,–,–,–,–,–,–,–
CCN(CC)c1ccc(/C=C/C=C2\NC(=O)NC2=O)cc1,32.4,> 100,32.7,> 100,21.3,–,5.93,> 100,34.2,2.68,9.01,3.69,6.49,10.5,> 100,1.85,1.03,11.2,2.93,–
O=C(NC(=O)c1ccccc1[N+](=O)[O-])Nc1ccc(Oc2ncc(Cl)cn2)c(C(F)(F)F)c1,> 67.9,98.4,> 100,> 69.1,3.63,> 100,–,> 100,24.6,–,–,–,–,–,2.6,–,–,–,–,–
Cc1cccc2c(O)cc(=O)oc12,> 100,> 100,> 100,> 100,> 100,> 100,> 100,> 100,> 100,–,–,–,–,–,–,–,–,–,–,–
CC1(C)CC(N(C(=O)/C=C/c2ccc([N+](=O)[O-])o2)C2CCCCC2)CC(C)(C)N1,12.9,22.2,29.7,18.2,22.5,13.3,–,21.3,19.4,–,–,–,–,–,–,–,–,–,–,–
O=C(CC/C(CC(=O)c1ccc(Br)cc1)=N\O)Nc1ccc(Cl)c(Cl)c1,> 100,> 100,> 100,> 100,> 100,> 100,90.7,> 100,> 100,–,–,–,–,–,–,–,–,–,–,–
Cn1c(=O)c2/c(n(C)c1=O)=N\C=c1\c(=O)n(C)c(=O)n(C)\c1=N\C=2,–,> 100,> 100,> 100,> 100,> 100,> 100,> 100,> 100,–,–,–,–,–,–,–,–,–,–,–
CC(=O)[CH-]C(C)=O.CC(=O)[CH-]C(C)=O.CC[O-].CC[O-].[Ti+4],> 100,> 100,> 100,> 100,> 100,> 100,> 100,–,> 100,> 100,> 100,> 100,> 100,–,–,> 100,> 100,–,> 100,> 100
OCCN1CCN(CC/C=C2/c3ccccc3Sc3ccc(Cl)cc32)CC1,31.2,31.5,29.9,26.8,23.2,23.6,26.5,29.2,26.7,–,–,–,–,–,–,–,–,–,13.2,–
CC(=O)[O-].O=C([CH-]C(=O)c1ccccc1)c1ccccc1.O=C([CH-]C(=O)c1ccccc1)c1ccccc1.[Sm+3],33.8,62.6,29.5,21.2,21.2,–,–,15.5,16.3,5.57,4.81,6.11,2.41,–,–,1.63,–,3.1,3.2,–
